{"source": "patent US12677848B2", "about": "“Stevia flavor compositions” (PURECIRCLE USA INC., priority 2019, dated 2026)", "format_in_all_cases": "in vivo, human", "key": {"[1]": {"system": "consumer panel (company employees)", "assay": "Sweetness perception threshold in neutral water (2-AFC)", "conditions": "n = 30", "from_the_text": "Therefore we selected 50 ppm of PCS-3028 as the recognition threshold concentration. [table] This is a re-evaluation of the recognition threshold concentration to follow methodology outlined in section 1.4.2 of the “Guidance for the Sensory Testing of Flavorings with Modifying Properties within the FEMA GRAS™ Program”."}, "[2]": {"system": "consumer panel (company employees)", "assay": "Sweetness perception threshold in lemon poppy seed muffin (2-AFC)", "conditions": "n = 30", "from_the_text": "Additional threshold test data found for Lemon Poppy Seed Muffin provided in Appendix. [table] [table]"}, "[3]": {"system": "consumer panel (company employees)", "assay": "Sweetness perception threshold in puffed corn breakfast cereal (2-AFC)", "protocol": "[…] As recommended by the FEMA Sensory guidance document,—Guidance for the Sensory Testing of Flavorings with Modifying Properties, within the FEMA GRAS™ Program, 2013—the recognition threshold concentration was determined using 2-alternateve forced choice (2-AFC) methodology.\nThis is an evaluation of the recognition threshold concentration to follow methodology outlined in section 1.4.2 of the “Guidance for the Sensory Testing of Flavorings with Modifying Properties within the FEMA GRAS™ Program”.\nSample Preparation: The puffed corn cereal (with no added sugar or flavor) purchased from local stores and sprayed with aqueous sucrose solutions using a portable atomizer to create a fine mist while tumbling the dry cereal grains. All the samples were dried to remove the added water from the samples. About 3 g of cereal was portioned into appropriately labeled blind-coded plastic 2 oz soufflé cup with lids. Samples were served dry to all panelists."}, "[4]": {"conditions": "1.5% sucrose vs 30 ppm PCS-3028 in water"}, "[5]": {"conditions": "1.5% sucrose vs 50 ppm PCS-3028 in water"}, "[6]": {"conditions": "1.5% sucrose vs 70 ppm PCS-3028 in water"}, "[7]": {"conditions": "4% sugar vs 70 ppm PCS3028 in muffins"}, "[8]": {"conditions": "4% sugar vs 150 ppm PCS3028 in muffins"}, "[9]": {"conditions": "4% sugar vs 250 ppm PCS3028 in muffins"}, "[10]": {"conditions": "Puffed Corn Cereal + vs + 250 ppm PCS-3028, n = 30"}}}
{"smiles": "OC[C@H]1O[C@@](CO)(O[C@H]2O[C@H](CO)[C@@H](O)[C@H](O)[C@H]2O)[C@@H](O)[C@@H]1O", "note": "[Sucrose]", "values": [{"measurement": "% Frequency (sample named as sweeter)", "setting": "[1]; [4]", "value": 96.7, "unit": "%"}, {"measurement": "PC (panelists naming the sample as sweeter)", "setting": "[1]; [4]", "value": 29}, {"measurement": "PC (panelists naming the sample as sweeter)", "setting": "[1]; [5]", "value": 21}, {"measurement": "Percent Frequency (sample named as sweeter)", "setting": "[1]; [5]", "value": 70.0, "unit": "%"}, {"measurement": "% Frequency (sample named as sweeter)", "setting": "[1]; [6]", "value": 10, "unit": "%"}, {"measurement": "PC (panelists naming the sample as sweeter)", "setting": "[1]; [6]", "value": 3}, {"measurement": "Frequency (sample named as sweeter)", "setting": "[2]; [7]", "value": 76.7, "unit": "%"}, {"measurement": "PC (panelists naming the sample as sweeter)", "setting": "[2]; [7]", "value": 23}, {"measurement": "Frequency (sample named as sweeter)", "setting": "[2]; [8]", "value": 70, "unit": "%"}, {"measurement": "PC (panelists naming the sample as sweeter)", "setting": "[2]; [8]", "value": 21}, {"measurement": "Frequency (sample named as sweeter)", "setting": "[2]; [9]", "value": 33.3, "unit": "%"}, {"measurement": "PC (panelists naming the sample as sweeter)", "setting": "[2]; [9]", "value": 10}, {"measurement": "PC (panelists naming the sample as sweeter)", "setting": "[3]; Puffed Corn Cereal + vs + 150 ppm PCS-3028, n = 30", "value": 28}, {"measurement": "% Frequency (sample named as sweeter)", "setting": "[3]; Puffed Corn Cereal + vs + 150 ppm PCS-3028, n = 30, listed as Sugar", "value": 93.3, "unit": "%"}, {"measurement": "% Frequency (sample named as sweeter)", "setting": "[3]; [10]", "value": 43.3, "unit": "%"}, {"measurement": "PC (panelists naming the sample as sweeter)", "setting": "[3]; [10]", "value": 13}]}
